This is an account of results in patent US11773157B2, “Compositions and methods for treating and preventing Staphylococcus aureus infections” (priority 2014, dated 2023).

The structures appear in SMILES notation.

The assay has as its system MRSA (NR 46223). The experiment in a line: In vivo survival, MRSA bacteremia with vancomycin co-treatment. The arrangement: species or system Balb/C mice. The note with it: 0.5 mg vancomycin i.p. alone (0 mg PA8-G3), two hours prior to infection; 3×10^7 CFU i.v.; PBS 10%. The method, then: Referring to FIGS. 8A-C, at day 14, only 10% of the PBS treated mice survived, 30% of the vancomycin treated mice survived. […] Statistical analysis of the animal data was conducted using Kaplan-Meier Survival Analysis with a Mantel-Cox (logrank) test.

Turning to `CN[C@H](CC(C)C)C(=O)N[C@H]1C(=O)N[C@@H](CC(N)=O)C(=O)N[C@H]2C(=O)N[C@H]3C(=O)N[C@H](C(=O)N[C@H](C(=O)O)c4cc(O)cc(O)c4-c4cc3ccc4O)[C@H](O)c3ccc(c(Cl)c3)Oc3cc2cc(c3O[C@@H]2O[C@H](CO)[C@@H](O)[C@H](O)[C@H]2O[C@H]2C[C@](C)(N)[C@H](O)[C@H](C)O2)Oc2ccc(cc2Cl)[C@H]1O` [vancomycin, reference compound], the “mice survived at day 14” value is 30%.
